Measured values published in patent US9096518B2, “Substituted hydroxamic acids and uses thereof” (Millennium Pharmaceuticals, Inc., priority 2009, dated 2015).
pIC50: −log10 of the molar value.

These compounds were tested against T1, purified human HDAC6 (Homo sapiens, UniProt Q9UBN7) (assay: HDAC6 Enzyme Assay).
T1 construct: purchased BPS Bioscience 5006
T1 sequence (Q9UBN7 1-1215): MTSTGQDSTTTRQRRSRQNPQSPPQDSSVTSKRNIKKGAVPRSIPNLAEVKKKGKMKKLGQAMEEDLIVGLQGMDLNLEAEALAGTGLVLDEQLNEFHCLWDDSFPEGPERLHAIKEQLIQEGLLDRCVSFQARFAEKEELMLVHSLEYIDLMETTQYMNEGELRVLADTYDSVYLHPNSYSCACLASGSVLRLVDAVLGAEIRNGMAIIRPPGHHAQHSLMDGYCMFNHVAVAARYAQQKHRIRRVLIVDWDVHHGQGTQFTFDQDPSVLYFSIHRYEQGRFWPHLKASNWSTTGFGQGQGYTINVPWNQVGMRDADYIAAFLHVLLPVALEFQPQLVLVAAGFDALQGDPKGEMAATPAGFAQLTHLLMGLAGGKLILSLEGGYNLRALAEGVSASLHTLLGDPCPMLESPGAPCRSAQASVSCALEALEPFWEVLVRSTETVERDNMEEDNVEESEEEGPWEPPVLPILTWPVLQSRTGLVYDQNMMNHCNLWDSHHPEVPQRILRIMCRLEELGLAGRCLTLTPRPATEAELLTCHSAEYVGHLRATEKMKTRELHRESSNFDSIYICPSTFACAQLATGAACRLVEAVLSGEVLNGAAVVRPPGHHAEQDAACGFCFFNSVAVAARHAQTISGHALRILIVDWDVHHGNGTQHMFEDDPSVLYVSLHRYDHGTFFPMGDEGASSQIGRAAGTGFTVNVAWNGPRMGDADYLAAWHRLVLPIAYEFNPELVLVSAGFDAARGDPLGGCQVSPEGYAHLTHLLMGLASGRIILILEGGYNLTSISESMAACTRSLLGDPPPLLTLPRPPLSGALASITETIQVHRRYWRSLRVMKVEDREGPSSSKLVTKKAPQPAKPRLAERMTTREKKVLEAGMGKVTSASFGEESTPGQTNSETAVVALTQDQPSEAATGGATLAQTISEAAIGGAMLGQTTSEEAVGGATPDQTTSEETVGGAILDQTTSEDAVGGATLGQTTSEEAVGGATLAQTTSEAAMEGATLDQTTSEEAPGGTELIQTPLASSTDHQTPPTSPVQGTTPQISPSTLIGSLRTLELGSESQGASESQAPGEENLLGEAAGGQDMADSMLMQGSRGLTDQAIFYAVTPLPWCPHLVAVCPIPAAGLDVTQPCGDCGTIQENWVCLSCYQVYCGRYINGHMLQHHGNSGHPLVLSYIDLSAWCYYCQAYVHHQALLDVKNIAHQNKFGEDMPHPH
Assay type: biochemical
Method: To measure the inhibition of HDAC6 activity, purified human HDAC6 (BPS Bioscience; Cat. No. 5006) is incubated with substrate Ac-Arg-Gly-Lys(Ac)-AMC peptide (Bachem Biosciences; Cat. No. I-1925) for 1 hour at 30° C. in the presence of test compounds or vehicle DMSO control. The reaction is stopped with the HDAC inhibitor trichostatin A (Sigma; Cat. No. T8552) and the amount of Arg-Gly-Lys-AMC generated is quantitated by digestion with trypsin (Sigma; Cat. No. T1426) and subsequent measurement of the amount of AMC released using a fluorescent plate reader (Pherastar; BMG Technologies) set at Ex 340 nm and Em 460 nm. Concentration response curves are generated by calculating the fluorescence increase in test compound-treated samples relative to DMSO-treated controls, and enzyme inhibition (IC50) values are determined from those curves.

| SMILES | pIC50 |
| --- | --- |
| COc1ccc(C(=O)N2CCCc3cc(C(=O)NO)ccc3C2)cc1 [Compound 235, N-hydroxy-2-(4-methoxybenzoyl)-2,3,4,5-tetrahydro-1H-2-benzazepine-7-carboxamide] | 6.30 to 7.00 |
| COc1ccc(S(=O)(=O)N2CCc3cc(C(=O)NO)ccc3C2)cc1 [Compound 49, N-hydroxy-2-[(4-methoxyphenyl)sulfonyl]-1,2,3,4-tetrahydroisoquinoline-6-carboxamide] | > 7.30 |
| CC(C)(C)C(=O)N1CCCc2cc(C(=O)NO)ccc2C1 [Compound 82, 2-(2,2-dimethylpropanoyl)-N-hydroxy-2,3,4,5-tetrahydro-1H-2-benzazepine-7-carboxamide] | 6.30 to 7.00 |
| O=C(NO)c1ccc2c(c1)CCCN(C(=O)C13CC4CC(CC(C4)C1)C3)C2 [Compound 232, 2-(1-adamantylcarbonyl)-N-hydroxy-2,3,4,5-tetrahydro-1H-2-benzazepine-7-carboxamide] | 6.30 to 7.00 |
| O=C(NO)c1ccc2c(c1)CCN(S(=O)(=O)c1cccc(-c3ccc(F)cc3)c1)C2 [Compound 48, 2-[(4′-fluorobiphenyl-3-yl)sulfonyl]-N-hydroxy-1,2,3,4-tetrahydroisoquinoline-6-carboxamide] | 7.00 to 7.30 |
| CC(N)(Cc1ccccc1)C(=O)N1CCc2cc(C(=O)NO)ccc2C1 (stereo not drawn) [Compound 20, 2-(2-amino-2-methyl-3-phenylpropanoyl)-N-hydroxy-1,2,3,4-tetrahydroisoquinoline-6-carboxamide] | 6.30 to 7.00 |
| O=C(NO)c1ccc2c(c1)CCCN(C(=O)c1cc3cc(Cl)ccc3[nH]1)C2 [Compound 240, 2-[(5-chloro-1H-indol-2-yl)carbonyl]-N-hydroxy-2,3,4,5-tetrahydro-1H-2-benzazepine-7-carboxamide] | > 7.30 |
| O=C(NO)c1ccc2c(c1)CCN(C(=O)Nc1ccccc1-c1ccccc1)C2 [Compound 102, N^2-biphenyl-2-yl-N^6-hydroxy-3,4-dihydroisoquinoline-2,6(1H)-dicarboxamide] | > 7.30 |
| CC(C)C(C(=O)N1CCc2cc(C(=O)NO)ccc2C1)c1ccccc1 (stereo not drawn) [Compound 27, N-hydroxy-2-(3-methyl-2-phenylbutanoyl)-1,2,3,4-tetrahydroisoquinoline-6-carboxamide] | > 7.30 |
| O=C(NO)c1ccc2c(c1)CCN(Cc1ccc3ccccc3n1)C2 [Compound 60, N-hydroxy-2-(quinolin-2-ylmethyl)-1,2,3,4-tetrahydroisoquinoline-6-carboxamide] | 7.00 to 7.30 |
| O=C(NO)c1ccc2c(c1)CCCN(C(=O)c1cc3cc(Cl)ccc3o1)C2 [Compound 257, 2-[(5-chloro-1-benzofuran-2-yl)carbonyl]-N-hydroxy-2,3,4,5-tetrahydro-1H-2-benzazepine-7-carboxamide] | 7.00 to 7.30 |
| O=C(NO)c1ccc2c(c1)CCN(CCc1cccc3ccccc13)C2 [Compound 58, N-hydroxy-2-[2-(1-naphthyl)ethyl]-1,2,3,4-tetrahydroisoquinoline-6-carboxamide] | 7.00 to 7.30 |
| CC(C)(C(=O)N1CCc2ccc(C(=O)NO)cc2CC1)c1ccc(Cl)cc1 [Compound 88, 3-[2-(4-chlorophenyl)-2-methylpropanoyl]-N-hydroxy-2,3,4,5-tetrahydro-1H-3-benzazepine-7-carboxamide] | > 7.30 |
| CCCCS(=O)(=O)N1CCc2cc(C(=O)NO)ccc2C1 [Compound 38, 2-(butylsulfonyl)-N-hydroxy-1,2,3,4-tetrahydroisoquinoline-6-carboxamide] | 7.00 to 7.30 |
| O=C(NO)c1ccc2c(c1)CCN(C(=O)c1cnn(-c3ccccc3)c1)C2 [Compound 7, N-hydroxy-2-[(1-phenyl-1H-pyrazol-4-yl)carbonyl]-1,2,3,4-tetrahydroisoquinoline-6-carboxamide] | > 7.30 |
| O=C(NO)c1ccc2c(c1)CCN(C(=O)C1CCCC1)C2 [Compound 32, 2-(cyclopentylcarbonyl)-N-hydroxy-1,2,3,4-tetrahydroisoquinoline-6-carboxamide] | > 7.30 |
| O=C(NO)c1ccc2c(c1)CCN(CCC(=O)N1CCc3ccccc31)C2 [Compound 73, 2-[3-(2,3-dihydro-1H-indol-1-yl)-3-oxopropyl]-N-hydroxy-1,2,3,4-tetrahydroisoquinoline-6-carboxamide] | 7.00 to 7.30 |
| O=C(NO)c1ccc2c(c1)CCN(S(=O)(=O)c1ccc(C(F)(F)F)cc1)C2 [Compound 52, N-hydroxy-2-{[4-(trifluoromethyl)phenyl]sulfonyl}-1,2,3,4-tetrahydroisoquinoline-6-carboxamide] | 7.00 to 7.30 |
| O=C(NO)c1ccc2c(c1)CCN(C(=O)c1cccc3ccccc13)C2 [Compound 12, N-hydroxy-2-(1-naphthoyl)-1,2,3,4-tetrahydroisoquinoline-6-carboxamide] | 7.00 to 7.30 |
| Cc1nc(CC(=O)N2CCc3cc(C(=O)NO)ccc3C2)cs1 [Compound 6, N-hydroxy-2-[(2-methyl-1,3-thiazol-4-yl)acetyl]-1,2,3,4-tetrahydroisoquinoline-6-carboxamide] | 6.30 to 7.00 |
| O=C(NO)c1ccc2c(c1)CCN(C(=O)NCCc1ccccc1)C2 [Compound 91, N^6-hydroxy-N^2-(2-phenylethyl)-3,4-dihydroisoquinoline-2,6(1H)-dicarboxamide] | > 7.30 |
| O=C(NO)c1ccc2c(c1)CCN(S(=O)(=O)c1csc(-c3ccon3)c1)C2 [Compound 112, N-hydroxy-2-[(5-isoxazol-3-yl-3-thienyl)sulfonyl]-1,2,3,4-tetrahydroisoquinoline-6-carboxamide] | 6.30 to 7.00 |
| CC(C)(C)c1ccc(S(=O)(=O)N2CCc3cc(C(=O)NO)ccc3C2)cc1 [Compound 44, 2-[(4-tert-butylphenyl)sulfonyl]-N-hydroxy-1,2,3,4-tetrahydroisoquinoline-6-carboxamide] | 7.00 to 7.30 |
| CC(C)(C)C(=O)N1Cc2ccc(C(=O)NO)cc2C1 [Compound 81, 2-(2,2-dimethylpropanoyl)-N-hydroxyisoindoline-5-carboxamide] | 7.00 to 7.30 |
| O=C(NO)c1ccc2c(c1)CCN(C(=O)Nc1ccc(Cc3ccccc3)cc1)C2 [Compound 99, N^2-(4-benzylphenyl)-N^6-hydroxy-3,4-dihydroisoquinoline-2,6(1H)-dicarboxamide] | > 7.30 |
| Cn1cccc1C(=O)N1CCc2ccc(C(=O)NO)cc2CC1 [Compound 86, N-hydroxy-3-[(1-methyl-1H-pyrrol-2-yl)carbonyl]-2,3,4,5-tetrahydro-1H-3-benzazepine-7-carboxamide] | 6.30 to 7.00 |
| CCc1cccc(C)c1NC(=O)N1CCc2cc(C(=O)NO)ccc2C1 [Compound 94, N^2-(2-ethyl-6-methylphenyl)-N^6-hydroxy-3,4-dihydroisoquinoline-2,6(1H)-dicarboxamide] | > 7.30 |
| O=C(NO)c1ccc2c(c1)CCN(Cc1ccc(-n3cncn3)cc1)C2 [Compound 59, N-hydroxy-2-[4-(1H-1,2,4-triazol-1-yl)benzyl]-1,2,3,4-tetrahydroisoquinoline-6-carboxamide] | 6.30 to 7.00 |
| O=C(NO)c1ccc2c(c1)CCCN(C(=O)c1cc(C(F)(F)F)cc(C(F)(F)F)c1)C2 [Compound 261] | < 6.30 |
| O=C(NO)c1ccc2c(c1)CCCN(C(=O)Cc1cc(C(F)(F)F)cc(C(F)(F)F)c1)C2 [Compound 236, 2-{[3,5-bis(trifluoromethyl)phenyl]acetyl}-N-hydroxy-2,3,4,5-tetrahydro-1H-2-benzazepine-7-carboxamide] | < 6.30 |
